According to patent US20090246198A1, “MAPK/ERK KINASE INHIBITORS AND METHODS OF USE THEREOF” (TAKEDA PHARMACEUTICAL COMPANY LIMITED, priority 2008, published 2009):

The compounds below were run against T1, MEK1 (Homo sapiens, UniProt Q02750, DEL33-52/S218E/S222D) (assay: MEK1 inhibition, fluorescence polarization (IMAP) assay with ERK1 and FI-Erktide). Conditions: 1 nM MEK1, 25 nM ERK1, 400 μM ATP, 22 min at room temperature; read-out: pIC50 (nM); IC50 of Exemplified Compounds against MEK1 (converted).
T1 construct: 6-histidine tag (N); made in house; host or cells: MEK1: baculovirus / Spodoptera frugiperda Sf9; ERK1: E. coli
Format: biochemical
Procedure: […] […] […] SEQ ID NO: 2 is the DNA sequence that was used to encode SEQ ID NO: 1.
The inhibitory properties of compounds relative to MEK1 or MEK2 may be determined using a black 384-well-plate format under the following reaction conditions: 50 mM HEPES pH 7.3, 10 mM NaCl, 10 mM MgCl2, 0.01% Brij35, 1 nM MEK1 or 4 nM MEK2, 25 nM ERK1, 400 μM ATP, 500 nM IPTTPITTYFFFK-5FAM-COOH (FI-Erktide), and 1% DMSO. Reaction product is determined quantitatively by fluorescent polarization using progressive IMAP beads from Molecular Devices.
The assay reaction may be initiated as follows: 2 μl of the mixture of 1.5 μM FI-Erktide and 75 nM ERK with 2 μl of inhibitor (2 fold serial dilutions for 11 data points for each inhibitor) containing 3% DMSO were added to each well of the plate, followed by the addition of 2 μl of the mixture of 3 nM MEK1 or 12 nM MEK2and 1200 μM ATP to initiate the reaction (final enzyme concentration was 1 nM for MEK1 or 4 nM for MEK2). The reaction mixture may then be incubated at room temperature for 22 min, and quenched and developed by addition of 20 μl of 1:200 dilution of progressive IMAP beads (Molecular Devices) in 80% buffer A, 20% buffer B and 0.003% Tween 20. Fluorescence polarization of the resulting reaction mixtures may be measured after a 1 hour incubation at room temperature.
IC50 values may be calculated by non-linear curve fitting of the compound concentrations and fluorescence polarization signal to the standard IC50 equation.

T1 sequence (Q02750 with tags, fused parts or gaps DEL33-52/S218E/S222D): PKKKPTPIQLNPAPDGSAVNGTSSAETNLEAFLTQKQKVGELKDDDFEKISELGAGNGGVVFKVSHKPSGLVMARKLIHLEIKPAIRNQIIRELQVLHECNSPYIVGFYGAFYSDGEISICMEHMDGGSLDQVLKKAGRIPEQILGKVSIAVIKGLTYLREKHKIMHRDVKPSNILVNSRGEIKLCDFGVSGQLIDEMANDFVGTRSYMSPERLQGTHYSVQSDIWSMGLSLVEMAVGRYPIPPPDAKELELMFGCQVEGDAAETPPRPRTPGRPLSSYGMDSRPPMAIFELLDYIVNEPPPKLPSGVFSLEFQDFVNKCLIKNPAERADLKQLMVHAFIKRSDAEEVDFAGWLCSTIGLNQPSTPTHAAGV

| IC50 [nM] | SMILES |
| --- | --- |
| < 100 | Cn1c(=O)c(F)c(Nc2ccc(I)cc2F)c2c(=O)n(C[C@@H](O)CO)ccc21 [Example 3R, (R)-6-(2,3-dihydroxypropyl)-3-fluoro-4-(2-fluoro-4-iodophenylamino)-1-methyl-1,6-naphthyridine-2,5(1H,6H)-dione] |
| < 100 | C#Cc1ccc(Nc2c(F)c(=O)n(C)c3ccn(C[C@@H](O)CO)c(=O)c23)c(F)c1 [Example 5, (R)-6-(2,3-dihydroxypropyl)-4-(4-ethynyl-2-fluorophenylamino)-3-fluoro-1-methyl-1,6-naphthyridine-2,5(1H,6H)-dione] |
| < 100 | Cn1c(=O)c(F)c(Nc2ccc(I)cc2F)c2c(=O)n(C[C@H](O)CO)ccc21 [Example 3S, (S)-6-(2,3-dihydroxypropyl)-3-fluoro-4-(2-fluoro-4-iodophenylamino)-1-methyl-1,6-naphthyridine-2,5(1H,6H)-dione] |
| ≥ 100 | Cn1c(=O)cc(Nc2ccc(Br)cc2F)c2c(=O)n(C[C@@H](O)CO)ccc21 [Example 2R, (R)-4-(4-bromo-2-fluorophenylamino)-6-(2,3-dihydroxypropyl)-1-methyl-1,6-naphthyridine-2,5(1H,6H)-dione] |
| ≥ 100 | Cn1c(=O)cc(Nc2ccc(C3CC3)cc2F)c2c(=O)n(C[C@@H](O)CO)ccc21 [Example 6, (R)-4-(4-cyclopropyl-2-fluorophenylamino)-6-(2,3-dihydroxypropyl)-1-methyl-1,6-naphthyridine-2,5(1H,6H)-dione] |
| < 100 | Cn1c(=O)cc(Nc2ccc(Br)cc2F)c2c(=O)n(CC(O)CO)ccc21 (racemic) [Example 2, 4-(4-bromo-2-fluorophenylamino)-6-(2,3-dihydroxypropyl)-1-methyl-1,6-naphthyridine-2,5(1H,6H)-dione] |
| < 100 | Cn1c(=O)cc(Nc2ccc(Br)cc2F)c2c(=O)n(C[C@H](O)CO)ccc21 [Example 2S, (S)-4-(4-bromo-2-fluorophenylamino)-6-(2,3-dihydroxypropyl)-1-methyl-1,6-naphthyridine-2,5(1H,6H)-dione] |
| < 100 | Cn1c(=O)c(F)c(Nc2ccc(Br)cc2F)c2c(=O)n(C[C@@H](O)CO)ccc21 [Example 4, (R)-4-(4-bromo-2-fluorophenylamino)-6-(2,3-dihydroxypropyl)-3-fluoro-1-methyl-1,6-naphthyridine-2,5(1H,6H)-dione] |
| < 100 | Cn1c(=O)cc(Nc2ccc(I)cc2F)c2c(=O)n(C[C@@H](O)CO)ccc21 [Example 1R, (R)-6-(2,3-dihydroxypropyl)-4-(2-fluoro-4-iodophenylamino)-1-methyl-1,6-naphthyridine-2,5(1H,6H)-dione] |
| < 100 | Cn1c(=O)cc(Nc2ccc(I)cc2F)c2c(=O)n(C[C@H](O)CO)ccc21 [Example 1S, (S)-6-(2,3-dihydroxypropyl)-4-(2-fluoro-4-iodophenylamino)-1-methyl-1,6-naphthyridine-2,5(1H,6H)-dione] |
